Measurements as given in patent US7722863B2, “Use of granzyme b as an hsp70/hsp70 peptide dependent inducer of apoptosis in tumor cells” (Multimmune GmbH, priority 2002, dated 2010).

Test system: CX+/CX− and Colo+/Colo− tumor cells
Experiment: Light microscopical analysis of plastic adherence (anoikes)
Assay type: cell-based, human
Details: 24 h post-treatment with granzyme B; Hsp70 membrane-positive and -negative lines
Method: In order to exclude apoptosis initiated by anoikes light microscopical analysis of untreated (control), camptothecin (cam) and granzyme B (grB) treated CX+/CX− and Colo+/Colo− tumor cells were performed. […] Regarding these findings we ruled out the possibility that anoikes might be a possible mechanism for the induction of apoptotic cell death in Hsp70 membrane-positive tumor sublines. It is important to note that all apoptosis assays were determined within the adherent cell population following a short term (<1 min) trypsinization.

granzyme B was tested, and the “loss in plastic adherence” value was “neither Hsp70 membrane-positive nor -negative tumor cell lines exhibited any signs of loss in plastic adherence”.
